Test systems include SK-MEL-2 melanoma; KM12 colon; HCT-15 colon; U251 CNS; MCF7 breast; EKVX NSCLC; SN12C renal; SK-MEL-28 melanoma; HCT-116 colon; CCRF-CEM leukemia.
What all share (assay): NCI tumour cell line growth inhibition, 48 h

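Five compound concentrations were applied to cells in 96-well plates for 48 hours; endpoints were derived by simple linear interpolation of the resulting dose-response curve. Here, GI50 denotes the concentration required for 50% inhibition of growth. TGI denotes the concentration required for complete inhibition of growth.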

For `Fc1ccc2c(c1)C1=C(CO2)C(c2ccc(Cl)cc2)NC(=S)N1` (stereo not given), the GI50 in the test on SK-MEL-2 melanoma was 24.3 µM; in the test on KM12 colon it was 17.8 µM; with HCT-15 colon, 92.6 µM; with U251 CNS, 18.7 µM; in the test with MCF7 breast it was 18.1 µM; in the test with EKVX NSCLC, 37.4 µM. In addition, in the test with SN12C renal, the GI50 is 17.7 µM. For the same compound, the TGI with SK-MEL-2 melanoma is 46.9 µM; in the test on KM12 colon it was 38.9 µM; in the test on HCT-15 colon it was > 100 µM; in the test on U251 CNS, 63.1 µM; with MCF7 breast, 42.2 µM; with EKVX NSCLC it was > 100 µM. In the test with SN12C renal, this compound returned a TGI of 40.2 µM.
On to `CC1CCCc2c1c1ccc3c(O)cccc3c1oc2=O` (stereo not given), for which the TGI in the test with SK-MEL-2 melanoma, in the test with KM12 colon, in the test with SK-MEL-28 melanoma, in the test on HCT-15 colon, with HCT-116 colon and in the test with U251 CNS was > 100 µM in each case. Also, the TGI with CCRF-CEM leukemia was > 100 µM; in the test with EKVX NSCLC, 85.9 µM; in the test on SN12C renal it was > 100 µM.
As for `CCOC(=O)C(C)(C)Oc1ccc2c(-c3ccc(Cl)cc3)c(-c3ccc(Cl)cc3)c(=O)oc2c1`, the TGI in the test with SK-MEL-2 melanoma, in the test on SK-MEL-28 melanoma, in the test on HCT-15 colon, in the test with HCT-116 colon, in the test with U251 CNS and in the test on CCRF-CEM leukemia was > 100 µM throughout. The TGI with EKVX NSCLC and with SN12C renal was > 100 µM throughout.
As to `CS/C(c1ccccc1)=[N+](\[O-])Cc1ccccc1`, the TGI in the test on SK-MEL-2 melanoma was > 100 µM; in the test on KM12 colon it was > 100 µM; in the test on SK-MEL-28 melanoma, > 100 µM; in the test on HCT-15 colon, 32.9 µM; in the test on HCT-116 colon it was > 100 µM; in the test on U251 CNS, > 100 µM. Also, the TGI in the test on CCRF-CEM leukemia, in the test with EKVX NSCLC and with SN12C renal was > 100 µM in each case.
As for `CC(=O)/C=C1\CC(=O)Nc2ccccc2N1`, the TGI in the test on SK-MEL-2 melanoma, in the test with KM12 colon, with SK-MEL-28 melanoma, with HCT-15 colon, in the test with HCT-116 colon and with U251 CNS was > 100 µM each time. In addition, the TGI in the test with CCRF-CEM leukemia, in the test on EKVX NSCLC and in the test on SN12C renal was > 100 µM throughout.
Consider `COc1ccc2c(CCNC(=O)/C=C/c3ccccc3)c(C(C)=O)[nH]c2c1[N+](=O)[O-]`, for which the TGI with SK-MEL-2 melanoma was > 100 µM; with KM12 colon, > 100 µM; with SK-MEL-28 melanoma, > 100 µM; in the test with HCT-15 colon, > 100 µM; in the test on HCT-116 colon, 87.2 µM; in the test on U251 CNS, > 100 µM. Further, the TGI in the test on CCRF-CEM leukemia and in the test with SN12C renal was > 100 µM in each case.
In the case of `CC(=O)OC1CCC2C(=CCC3C2(C)C(=O)CC2(C)C(C4(C)OC(C(C)C)=CC4=O)C(O)CC32C)C1(C)C` (stereo not given), the TGI was 62.3 µM in the test with SK-MEL-2 melanoma; > 10 µM in the test on KM12 colon; > 100 µM in the test on HCT-15 colon; > 10 µM with HCT-116 colon; > 100 µM in the test on U251 CNS; 56.5 µM with CCRF-CEM leukemia. Further, the TGI with EKVX NSCLC and in the test with SN12C renal was > 100 µM throughout.
As for `CCN(CC)c1ccc(N=C2C=C(Cl)C(=O)c3ncccc32)c(C)c1`, the TGI with SK-MEL-2 melanoma was > 100 µM; in the test with SK-MEL-28 melanoma, 91 µM; in the test on HCT-15 colon, 20.8 µM; with HCT-116 colon, 11.6 µM; with U251 CNS, 18 µM; with CCRF-CEM leukemia, > 100 µM. Also, the TGI amounted to 36.8 µM in the test on EKVX NSCLC and 55.1 µM in the test on SN12C renal.
On to `O=C(Nc1ccc(Br)cc1)C(=O)C(C(=O)c1ccccc1F)C1OC(=O)c2ccccc21` (stereo not given), for which the TGI is 68.6 µM in the test on SK-MEL-2 melanoma; > 100 µM in the test with KM12 colon; 50.2 µM in the test on SK-MEL-28 melanoma; > 100 µM in the test with HCT-15 colon; 35.6 µM with HCT-116 colon; 51.8 µM with U251 CNS. For the same compound, the values for the TGI in the test with CCRF-CEM leukemia, in the test with EKVX NSCLC and in the test on SN12C renal were > 100 µM, > 100 µM and 85 µM, respectively.
With `CCOC(=O)c1ccc(N2C(=O)Cc3ccccc3C2=O)cc1`, the TGI with SK-MEL-2 melanoma, in the test with KM12 colon, with SK-MEL-28 melanoma, with HCT-15 colon, in the test with HCT-116 colon and with U251 CNS was > 100 µM in each case. The TGI in the test on EKVX NSCLC and with SN12C renal was > 100 µM in each case.
`OCC(O)C(O)C(O)c1nn(-c2ccccc2)c2nc3cc(Cl)c(Cl)cc3nc12` (stereo not given): the TGI was 98 µM in the test with SK-MEL-2 melanoma; > 100 µM with SK-MEL-28 melanoma; > 100 µM in the test with HCT-116 colon; > 100 µM in the test with U251 CNS; > 100 µM in the test on CCRF-CEM leukemia; > 100 µM in the test on EKVX NSCLC. In addition, in the test on SN12C renal, the TGI was > 100 µM.
Take `O=C(NC1C2CC3CC(C2)CC1C3)/C(Cl)=C1/Sc2ccccc2NC1=O` (stereo not given): the TGI in the test with KM12 colon, in the test on SK-MEL-28 melanoma, in the test on HCT-15 colon, in the test with HCT-116 colon, with U251 CNS and with CCRF-CEM leukemia was > 100 µM in each case. Further, the TGI in the test with EKVX NSCLC and in the test on SN12C renal was > 100 µM throughout.
`O=C(Nc1nc2ccc([N+](=O)[O-])cc2s1)C(=O)C(C(=O)c1ccncc1)C1OC(=O)c2ccccc21` (stereo not given): the TGI with KM12 colon, with HCT-15 colon, in the test on HCT-116 colon, with U251 CNS, in the test with CCRF-CEM leukemia and in the test on EKVX NSCLC was > 100 µM in each case. For the same compound, the TGI in the test on SN12C renal is > 100 µM.
With `CC(C)C(=O)[O-].CC(C)C(=O)[O-].N.N.N.N.[Co+3].[O-][Cl+3]([O-])([O-])[O-]`, the GI50 in the test on SK-MEL-2 melanoma, in the test with KM12 colon, with SK-MEL-28 melanoma, with HCT-15 colon, in the test with HCT-116 colon and in the test with U251 CNS was > 100 µM each time. Besides, the GI50 in the test on CCRF-CEM leukemia, in the test on EKVX NSCLC and in the test with SN12C renal was > 100 µM in each case. The TGI in the test with SK-MEL-2 melanoma, in the test with KM12 colon, in the test with SK-MEL-28 melanoma, with HCT-15 colon, in the test on HCT-116 colon and in the test with U251 CNS was > 100 µM in each case. Also, the TGI in the test on CCRF-CEM leukemia, with EKVX NSCLC and in the test with SN12C renal was > 100 µM in each case.

The values above are taken from PubChem BioAssay (NCI).
